Results taken from patent US20250129078A1, “ERBB2 INHIBITORS” (Cogent Biosciences, Inc., priority 2023, published 2025).

Target: EGFR WT (Homo sapiens (Human), UniProt P00533)
Assay: ErbB enzyme assay (CisBio HTRF-KinEASE-TK), EGFR WT
Type: biochemical
Settings: ATP at Km (25 μM), 1 h incubation
Method: In vitro enzyme assays based on CisBio HTRF-KinEASE-TK technology were used to determine compound potencies. […]. Compounds were prepared as a three-fold serial dilution in DMSO and added to the assay to give the appropriate final concentration. After a 1 h incubation at ambient temperature, the reaction was quenched by adding 10 μL of 62.5 nM Sa-XL665 and 0.25×TK-Ab-Cryptate in HTRF detection buffer (all from CisBio, part of cat #62TKOPEC). After another 1 h incubation at ambient temperature, the extent of substrate phosphorylation was determined using a PerkinElmer EnVision multimode plate reader via time-resolved fluorescence dual wavelength detection. The percent of control (POC) was calculated using the ratio of emission at […] to the emission at 620 nm. One hundred POC was determined using DMSO only controls (no test compounds present) and zero POC was determined using pre-quenched controls reactions. A 4-parameter logistic equation was fit to the POC values as a function of the test compound concentration and the IC50 value was determined as the point where the curve crossed 50 POC.

Sequence of EGFR WT (P00533 25-1210): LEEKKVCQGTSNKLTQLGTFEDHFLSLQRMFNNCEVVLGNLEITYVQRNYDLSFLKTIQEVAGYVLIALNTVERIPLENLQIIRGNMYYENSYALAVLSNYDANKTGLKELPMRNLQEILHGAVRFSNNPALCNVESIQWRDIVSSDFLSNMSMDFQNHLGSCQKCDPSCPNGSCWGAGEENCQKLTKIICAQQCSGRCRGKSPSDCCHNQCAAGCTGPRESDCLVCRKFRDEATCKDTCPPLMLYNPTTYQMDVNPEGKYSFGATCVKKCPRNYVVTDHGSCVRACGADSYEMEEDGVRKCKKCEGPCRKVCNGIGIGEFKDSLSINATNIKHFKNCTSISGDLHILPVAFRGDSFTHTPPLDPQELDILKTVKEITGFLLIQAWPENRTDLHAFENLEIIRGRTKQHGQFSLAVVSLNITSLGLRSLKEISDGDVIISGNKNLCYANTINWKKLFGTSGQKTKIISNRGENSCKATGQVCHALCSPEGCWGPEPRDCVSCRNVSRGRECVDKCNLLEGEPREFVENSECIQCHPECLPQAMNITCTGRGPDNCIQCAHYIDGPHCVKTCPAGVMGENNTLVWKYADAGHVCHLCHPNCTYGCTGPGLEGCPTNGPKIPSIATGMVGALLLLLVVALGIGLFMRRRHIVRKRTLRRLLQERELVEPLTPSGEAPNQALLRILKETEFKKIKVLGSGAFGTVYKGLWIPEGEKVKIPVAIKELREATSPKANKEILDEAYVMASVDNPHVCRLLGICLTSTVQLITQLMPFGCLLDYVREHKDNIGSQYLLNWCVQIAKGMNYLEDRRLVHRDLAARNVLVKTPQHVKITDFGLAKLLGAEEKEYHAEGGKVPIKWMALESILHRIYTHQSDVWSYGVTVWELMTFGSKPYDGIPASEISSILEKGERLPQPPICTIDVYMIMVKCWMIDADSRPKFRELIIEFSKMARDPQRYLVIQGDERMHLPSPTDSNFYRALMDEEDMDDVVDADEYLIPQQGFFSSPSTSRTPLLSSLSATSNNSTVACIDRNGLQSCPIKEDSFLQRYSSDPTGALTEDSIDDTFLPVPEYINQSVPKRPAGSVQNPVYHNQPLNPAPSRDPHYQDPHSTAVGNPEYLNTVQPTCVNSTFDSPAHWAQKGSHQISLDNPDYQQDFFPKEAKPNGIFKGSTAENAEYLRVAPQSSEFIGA

Compared with `C=CC(=O)N1CCC(Oc2nc3c(Nc4ccc(Oc5ccc6c(c5)ncn6C)c(C)c4F)ncnc3cc2OC)CC1` [Compound 394, 1-(4-((4-((2-fluoro-3-methyl-4-((1-methyl-1H-benzo[1d]imidazol-5-yl)oxy)phenyl)amino)-7-methoxypyrido[3,2-d]pyrimidin-6-yl)oxy)piperidin-1-yl)prop-2-en-1-one], `C=CC(=O)N1CCN(c2ncc3ncnc(Nc4cc(C)c(Oc5cc(F)c6c(c5)ncn6C)cc4OC)c3n2)CC1` [Compound 38, 1-(4-(8-((4-((7-fluoro-1-methyl-1H-benzo[d]imidazol-5-y1)oxy)-2-methoxy-5-methylphenyl)amino)pyrimido[5,4-d]pyrimidin-2-yl)piperazin-1-yl)prop-2-en-1-one 2,2,2-trifluoroacetate] is higher in IC50: less than 50 nM for the first, 100 to 500 nM for the second. The first is the more potent here.

First: C=CC(=O)N[C@@]1(C)CCN(c2ncc3ncnc(Nc4ccc(Oc5ccc6c(c5)nnn6C)c(C)c4)c3n2)C1 [Compound 145, (S)-N-(3-methyl-1-(8-((3-methyl-4-((1-methyl-1H-benzo[d][1,2,3]triazol-5-yl)oxy)phenyl)amino)pyrimido[5,4-d]pyrimidin-2-yl)pyrrolidin-3-yl)acrylamide]
Second: C=CC(=O)N[C@]1(C)CCN(c2ncc3ncnc(Nc4ccc(Oc5ccc6c(c5)nnn6C)c(C)c4)c3n2)C1 [Compound 144, (R)-N-(3-methyl-1-(8-((3-methyl-4-((1-methyl-1H-benzo[d][1,2,3]triazol-5-yl)oxy)phenyl)amino)pyrimido[5,4-d]pyrimidin-2-yl)pyrrolidin-3-yl)acrylamide]
The IC50 of the first is higher: 100 to 500 nM for the first, less than 50 nM for the second.

First: C=CC(=O)N1CCN(c2ncc3ncnc(Nc4ccc(Oc5ccc6c(c5)ncn6C(F)F)c(C)c4)c3n2)CC1 [Compound 30, 1-(4-(8-((4-((1-(difluoromethyl)-1H-benzo[d]imidazol-5-yl)oxy)-3-methylphenyl)amino)pyrimido[5,4-d]pyrimidin-2-y1)piperazin-1-yl)prop-2-en-1-one]
Second: C=CC(=O)N1CCN(c2ncc3ncnc(Nc4ccc(Oc5ccc6c(c5)ncn6C(F)F)c(C)c4)c3n2)C[C@H]1C [Compound 162, (R)-1-(4-(8-((4-((1-(difluoromethyl)-1H-benzo[d]imidazol-5-yl)oxy)-3-methylphenyl)amino)pyrimido[5,4-d]pyrimidin-2-y1)-2-methylpiperazin-1-yl)prop-2-en-1-one]
The IC50 of the first is lower: 50 to 100 nM for the first, 100 to 500 nM for the second. The first is the more potent here.

`C=CC(=O)N[C@H]1CN(c2ncc3ncnc(Nc4ccc(Oc5ccc6c(c5)nnn6C)c(C)c4F)c3n2)CC[C@@H]1C` [Compound 229, N-((3R,4S)-1-(8-((2-fluoro-3-methyl-4-((1-methyl-1H-benzo[d][1,2,3]triazol-5-yl)oxy)phenyl)amino)pyrimido[5,4-d]pyrimidin-2-yl)-4-methylpiperidin-3-yl)acrylamide] and `C=CC(=O)N[C@@H]1CCN(c2ccc3ncnc(Nc4ccc(Oc5ccc6c(c5)nnn6C)c(C)c4F)c3n2)C[C@H]1F` [Compound 287, N-((3R,4R)-3-fluoro-1-(4-((2-fluoro-3-methyl-4-((1-methyl-1H-benzo[d][1,2,3]triazol-5-yl)oxy)phenyl)amino)pyrido[3,2-d]pyrimidin-6-yl)piperidin-4-yl)acrylamide] fall in the same range of IC50: 100 to 500 nM for the first, 100 to 500 nM for the second.

Compared with `C=CC(=O)N[C@@H]1CCCN(c2ccc3ncnc(Nc4cc(C)c(Oc5ccc6c(c5)nnn6C)cc4OC(F)F)c3n2)C1` [Compound 269, (R)-N-(1-(4-((2-(difluoromethoxy)-5-methyl-4-((1-methyl-1H-benzo[d][1,2,3]triazol-5-yl)oxy)phenyl)amino)pyrido[3,2-d]pyrimidin-6-yl)piperidin-3-yl)acrylamide], `C=CC(=O)N[C@@H]1CCCN(c2ncc3ncnc(Nc4ccc(Oc5ccc6c(c5)nnn6C)c(C)c4)c3n2)C1` [Compound 125, (R)-N-(1-(8-((3-methyl-4-((1-methyl-1H-benzo[d][1,2,3]triazol-5-yl)oxy)phenyl)amino)pyrimido [5,4-d]pyrimidin-2-y1)piperidin-3-yl)acrylamide] is lower in IC50: no less than 1000 nM for the first, 100 to 500 nM for the second. The second is the more potent here.

`C=CC(=O)N1CCC2(CC1)CN(c1ncc3ncnc(Nc4ccc(Oc5ccc6c(c5)nnn6C)c(C)c4)c3n1)C2` [Compound 14, 1-(2-(8-((3-methyl-4-((1-methyl-1H-benzo[d][1,2,3]triazol-5-yl)oxy)phenyl)amino)pyrimido[5,4-d]pyrimidin-2-y1)-2,7-diazaspiro[3.5]nonan-7-yl)prop-2-en-1-one] and `C=CC(=O)N1CCCN(c2ncc3ncnc(Nc4ccc(Oc5ccc6c(c5)nnn6C)c(C)c4)c3n2)C[C@@H]1C` [Compound 165, (S)-1-(2-methyl-4-(8-((3-methyl-4-((1-methyl-1H-benzo[d][1,2,3]triazol-5-yl)oxy)phenyl)amino)pyrimido[5,4-d]pyrimidin-2-y1)-1,4-diazepan-1-yl)prop-2-en-1-one] cannot be ordered by IC50: no less than 1000 nM for the first, no less than 1000 nM for the second.

First: COC[C@@H]1CN(c2ccc3ncnc(Nc4ccc(Oc5ccc6c(c5)nnn6C)c(C)c4F)c3n2)CCN1C(=O)/C=C/CF [Compound 361, (S,E)-4-fluoro-1-(4-(4-((2-fluoro-3-methyl-4-((1-methyl-1H-benzo[d][1,2,3]triazol-5-yl)oxy)phenyl)amino)pyrido[3,2-d]pyrimidin-6-yl)-2-(methoxymethyl)piperazin-1-yl)but-2-en-1-one]
Second: C=CC(=O)N1CCN(c2ccc3ncnc(Nc4ccc(Oc5ccc6c(c5)nnn6C)c(C)c4)c3n2)C[C@@H]1CC#N [Compound 83, (S)-2-(1-acryloyl-4-(4-((3-methyl-4-((1-methyl-1H-benzo[d][1,2,3]triazol-5-yl)oxy)phenyl)amino)pyrido[3,2-d]pyrimidin-6-yl)piperazin-2-yl)acetonitrile]
The IC50 of the first is higher: 50 to 100 nM for the first, less than 50 nM for the second. The second is the more potent here.

`C=C(COC)C(=O)NC1(C)CCN(c2ncc3ncnc(Nc4ccc(Oc5ccc6c(c5)nnn6C)c(C)c4)c3n2)CC1` [Compound 215, 2-(methoxy-methyl)-N-(4-methyl-1-(8-((3-methyl-4-((1-methyl-1H-benzo[d][1,2,3]triazol-5-yl)oxy)phenyl)amino)pyrimido [5,4-d]pyrimidin-2-yl)piperidin-4-yl)acrylamide] and `C=C(COC)C(=O)N1C2CC1CN(c1ncc3ncnc(Nc4ccc(Oc5ccc6c(c5)nnn6C)c(C)c4)c3n1)C2` [Compound 213, 2-(methoxymethyl)-1-(3-(8-((3-methyl-4-((1-methyl-1H-benzo[d][1,2,3]triazol-5-yl)oxy)phenyl)amino)pyrimido [5,4-d]pyrimidin-2-yl)-3,6-diazabicyclo[3.1.1]heptan-6-yl)prop-2-en-1-one] cannot be ordered by IC50: no less than 1000 nM for the first, no less than 1000 nM for the second.

First: C=CC(=O)N1CCN(c2ncc3ncnc(Nc4ccc(Oc5cc6ncnn6cc5C)c(C)c4)c3n2)C[C@H]1C [Compound 182]
Second: C=CC(=O)N1CCN(c2ncc3ncnc(Nc4ccc(Oc5cc6nnn(C)c6cc5C)c(C)c4)c3n2)CC1 [Compound 136, 1-(4-(8-((4-((1,6-dimethyl-1H-benzo[d][1,2,3]triazol-5-y1)oxy)-3-methylphenyl)amino)pyrimido[5,4-d]pyrimidin-2-yl)piperazin-1-yl)prop-2-en-1-one]
The IC50 of the first is higher: 500 to 1000 nM for the first, 100 to 500 nM for the second. The second is the more potent here.

Compared with `C=CC(=O)N1CCN(c2ccc3ncnc(Nc4cc(C)c(Oc5ccn6ncnc6c5)cc4OC)c3n2)C[C@H]1C` [Compound 318, (R)-1-(4-(4-((4-([1,2,4]triazolo[1,5-a]pyridin-7-yloxy)-2-methoxy-5-methylphenyl)amino)pyrido[3,2-d]pyrimidin-6-yl)-2-methylpiperazin-1-yl)prop-2-en-1-one], `C=CC(=O)N1CCN(c2ccc3ncnc(Nc4ccc(Oc5ccc6c(c5)nnn6C)c(C)c4)c3n2)C[C@@H]1C` [Compound 72, (S)-1-(2-methyl-4-(4-((3-methyl-4-((1-methyl-1H-benzo[d][1,2,3]triazol-5-yl)oxy)phenyl)amino)pyrido[3,2-d]pyrimidin-6-yl)piperazin-1-yl)prop-2-en-1-one] is higher in IC50: less than 50 nM for the first, 100 to 500 nM for the second. The first is the more potent here.

Compared with `C=CC(=O)N1CCN(c2ccc3ncnc(Nc4ccc(Oc5ccc6c(c5)ncn6C(F)F)c(C)c4F)c3c2)CC1` [Compound 375, 1-(4-(4-((4-((1-(difluoromethyl)-1H-benzo[d]imidazol-5-yl)oxy)-2-fluoro-3-methylphenyl)amino)quinazolin-6-yl)piperazin-1-yl)prop-2-en-1-one], `C=CC(=O)N1CCN(c2ncc3ncnc(Nc4ccc(Oc5ccc6c(c5)nnn6C)c(C(F)(F)F)c4)c3n2)CC1` [Compound 43, 1-(4-(8-((4-((1-methyl-1H-benzo[d][1,2,3]triazol-5-yl)oxy)-3-(trifluoromethyl)phenyl)amino)pyrimido[5,4-d]pyrimidin-2-yl)piperazin-1-yl)prop-2-en-1-one] is higher in IC50: 50 to 100 nM for the first, 100 to 500 nM for the second. The first is the more potent here.

`C=CC(=O)N[C@H]1CN(c2ccc3ncnc(Nc4ccc(Oc5ccc6c(c5)nnn6C)c(C)c4)c3n2)C[C@H]1F` [Compound 277, N-((3S,4R)-4-fluoro-1-(4-((3-methyl-4-((1-methyl-1H-benzo[d][1,2,3]triazol-5-yl)oxy)phenyl)amino)pyrido[3,2-d]pyrimidin-6-yl)pyrrolidin-3-yl)acrylamide] and `C=CC(=O)NC1CC(N(C)c2ncc3ncnc(Nc4ccc(Oc5ccc6c(c5)nnn6C)c(C)c4)c3n2)C1` (stereo not shown) [Compound 142, N-(3-(methyl(8-((3-methyl-4-((1-methyl-1H-benzo[d][1,2,3]triazol-5-yl)oxy)phenyl)amino)pyrimido [5,4-d]pyrimidin-2-yl)amino)cyclobutyl)acrylamide] fall in the same range of IC50: 100 to 500 nM for the first, 100 to 500 nM for the second.

`C=CC(=O)N1CCN(c2ccc3ncnc(Nc4ccc(Oc5cc(F)c6c(c5)nnn6C)c(C)c4)c3n2)CC1` [Compound 97, 1-(4-(4-((4-((7-fluoro-1-methyl-1H-benzo[d][1,2,3]triazol-5-yl)oxy)-3-methylphenyl)amino)pyrido[3,2-d]pyrimidin-6-yl)piperazin-1-yl)prop-2-en-1-one] was tested, and the IC50 was less than 50 nM.
